The results in this text go back to ChEMBL document CHEMBL3856255, “Synthesis and biological evaluation of Hederacolchiside A1 derivatives as anticancer agents” (Bioorg Med Chem Lett, 2016).

A short description of data set [1]: Cytotoxicity against human U251 cells assessed as reduction in cell viability after 48 hrs by MTT assay. The following applies: U-251, 48 h. The format is functional, cell-based.
For data set [2], the system named is Mus musculus. Nature of the data set: Toxicity in mouse assessed as death time administered as submicron emulsions through caudal vein injection dosed daily. Type of data set: organism-based. The following applies: in vivo, iv.
A short description of data set [3]: Cytotoxicity against human NCI-H460 cells assessed as reduction in cell viability after 48 hrs by MTT assay. Type of data set: functional, cell-based. Conditions: NCI-H460, 48 h.
Data set [4] is described as follows: Cytotoxicity against human SMMC7721 cells assessed as reduction in cell viability after 48 hrs by MTT assay. The format is functional, cell-based. Conditions: SMMC-7721, 48 h. On the technique in general: Formazan colour is commonly taken as a measure of viable cells.
Data set [5] can be described thus: Cytotoxicity against human SGC7901 cells assessed as reduction in cell viability after 48 hrs by MTT assay. Conditions: SGC-7901, 48 h. The format is functional, cell-based.
Data set [6] can be described thus: Cytotoxicity against human HCT116 cells assessed as reduction in cell viability after 48 hrs by MTT assay. Conditions: HCT-116, 48 h. Type of data set: functional, cell-based.
Data set [7] can be described thus: Cytotoxicity against human SKOV3 cells assessed as reduction in cell viability after 48 hrs by MTT assay. The format is functional, cell-based. The following applies: SK-OV-3, 48 h.
The subject of data set [8] is Mus musculus. Nature of the data set: Toxicity in nude mouse xenografted with […] cells assessed as body weight level at 20 mg/kg administered as submicron emulsions through caudal vein injection dosed daily for 14 days (reference value: 42.63 +/- 5.81 g). Type of data set: organism-based. The following applies: in vivo, iv, 336 h. In general terms: Xenograft models place foreign cells or tissue in a host animal.

Data set [9] concerns Mus musculus. The data set is described as follows: Toxicity in nude mouse xenografted with […] cells assessed as body weight level at 10 mg/kg administered as submicron emulsions through caudal vein injection dosed daily for 14 days (reference value: 42.63 +/- 5.81 g). Type of data set: organism-based. Conditions: in vivo, iv, 336 h.
Data set [10] has as its system Mus musculus. The data set is described as follows: Toxicity in nude mouse xenografted with […] cells assessed as induction of mouse mortality at 10 mg/kg administered as submicron emulsions through caudal vein injection dosed daily for 14 days. The following applies: in vivo, iv, 336 h. The format is organism-based.
The nature of data set [11]: Antitumor activity against H22 cells xenografted in nude mouse assessed as tumor growth inhibition at 10 mg/kg administered as submicron emulsions through caudal vein injection dosed daily for 14 days. The format is functional. Conditions: H22, 336 h; read-out: TGI.
Data set [12] is described as follows: Antitumor activity against H22 cells xenografted in nude mouse assessed as tumor growth inhibition at 20 mg/kg administered as submicron emulsions through caudal vein injection dosed daily for 14 days. Type of data set: functional. Conditions: H22, 336 h; read-out: TGI.
Data set [13] deals with Mus musculus. Nature of the data set: Toxicity in nude mouse xenografted with […] cells assessed as induction of mouse mortality at 20 mg/kg administered as submicron emulsions through caudal vein injection dosed daily for 14 days. The format is organism-based. The following applies: in vivo, iv, 336 h.
Data set [14] is described as follows: Cytotoxicity against human HCT116 cells assessed as reduction in cell viability after 24 hrs by MTT assay. Type of data set: functional, cell-based. Conditions: HCT-116, 24 h.
Data set [15] relates to Mus musculus. The data set is described as follows: Toxicity in nude mouse xenografted with […] cells assessed as body weight level at 6 mg/kg administered as submicron emulsions through caudal vein injection dosed every 3 days for 14 days (reference value: 42.63 +/- 5.81 g). The format is organism-based. Conditions: in vivo, iv.
Data set [16] can be described thus: Cytotoxicity against human NCI-H460 cells assessed as reduction in cell viability after 24 hrs by MTT assay. The format is functional, cell-based. The following applies: NCI-H460, 24 h.
The nature of data set [17]: Cytotoxicity against human SKOV3 cells assessed as reduction in cell viability after 24 hrs by MTT assay. The format is functional, cell-based. Conditions: SK-OV-3, 24 h.
Data set [18] in a line: Cytotoxicity against human U251 cells assessed as reduction in cell viability after 24 hrs by MTT assay. The format is functional, cell-based. The following applies: U-251, 24 h.
The nature of data set [19]: Antitumor activity against H22 cells xenografted in nude mouse assessed as tumor growth inhibition at 6 mg/kg administered as submicron emulsions through caudal vein injection dosed every 3 days for 14 days. The format is functional. Conditions: read-out: TGI.
A short description of data set [20]: Toxicity in mouse assessed as tolerance dose administered as submicron emulsions through caudal vein injection dosed daily for 7 days. Conditions: in vivo, iv, read-out: Activity. The format is organism-based.
The nature of data set [21]: Cytotoxicity against human SMMC7721 cells assessed as reduction in cell viability after 24 hrs by MTT assay. The format is functional, cell-based. The following applies: SMMC-7721, 24 h.
A short description of data set [22]: Cytotoxicity against human SGC7901 cells assessed as reduction in cell viability after 24 hrs by MTT assay. The format is functional, cell-based. The following applies: SGC-7901, 24 h.

For `C[C@@H]1O[C@@H](O[C@H]2[C@H](O[C@H]3CC[C@]4(C)[C@H]5CC=C6[C@@H]7CC(C)(C)CC[C@]7(C(=O)OCC(=O)O)CC[C@@]6(C)[C@]5(C)CC[C@H]4C3(C)C)OC[C@H](O[C@@H]3O[C@H](CO)[C@@H](O)[C@H](O)[C@H]3O)[C@@H]2O)[C@H](O)[C@H](O)[C@H]1O`, the half-maximal inhibitory concentration (IC50) in data set [1] was determined as 2 µM; in data set [3], 1.8 µM; in data set [4], 2.2 µM; in data set [5] it was 3.3 µM; in data set [6], 3.9 µM; in data set [7] it was 2.7 µM. The Time with Mus musculus [2] stood at 7 days.

Regarding `C[C@@H]1O[C@@H](O[C@H]2[C@H](O[C@H]3CC[C@]4(C)[C@H]5CC=C6[C@@H]7CC(C)(C)CC[C@]7(C(=O)OCCCO)CC[C@@]6(C)[C@]5(C)CC[C@H]4C3(C)C)OC[C@H](O[C@@H]3O[C@H](CO)[C@@H](O)[C@H](O)[C@H]3O)[C@@H]2O)[C@H](O)[C@H](O)[C@H]1O`, the IC50 in data set [1] is 43.5 µM; in data set [3], 55.7 µM; in [4], more than 100 µM; in data set [5], 47.3 µM; in data set [6], 39.2 µM; in data set [7], more than 100 µM.

In the case of `CCOC(=O)[C@]12CCC(C)(C)C[C@H]1C1=CC[C@@H]3[C@@]4(C)CC[C@H](O[C@@H]5OC[C@H](O[C@@H]6O[C@H](CO)[C@@H](O)[C@H](O)[C@H]6O)[C@H](O)[C@H]5O[C@@H]5O[C@@H](C)[C@H](O)[C@@H](O)[C@H]5O)C(C)(C)[C@@H]4CC[C@@]3(C)[C@]1(C)CC2`, the half-maximal inhibitory concentration (IC50) amounted to 1.6 µM in data set [1]; 2.7 µM in [3]; 3.5 µM in [4]; 4.9 µM in data set [5]; 5.3 µM in data set [6]; 5.8 µM in [7].

Take `C[C@@H]1O[C@@H](O[C@H]2[C@H](O[C@H]3CC[C@]4(C)[C@H]5CC=C6[C@@H]7CC(C)(C)CC[C@]7(C(=O)OCCO)CC[C@@]6(C)[C@]5(C)CC[C@H]4C3(C)C)OC[C@H](O[C@@H]3O[C@H](CO)[C@@H](O)[C@H](O)[C@H]3O)[C@@H]2O)[C@H](O)[C@H](O)[C@H]1O`: the concentration for half-maximal inhibition (IC50) turned out to be 13.4 µM in data set [1]; 46.7 µM in data set [3]; 35.6 µM in data set [4]; 20.6 µM in data set [5]; 25.6 µM in data set [6]; 19.7 µM in data set [7].

For `C[C@@H]1O[C@@H](O[C@H]2[C@H](O[C@H]3CC[C@]4(C)[C@H]5CC=C6[C@@H]7CC(C)(C)CC[C@]7(C(=O)OCCC(=O)O)CC[C@@]6(C)[C@]5(C)CC[C@H]4C3(C)C)OC[C@H](O[C@@H]3O[C@H](CO)[C@@H](O)[C@H](O)[C@H]3O)[C@@H]2O)[C@H](O)[C@H](O)[C@H]1O`, the IC50 was 4.6 µM in [1]; 9.8 µM in data set [3]; 2.7 µM in data set [4]; 6.5 µM in data set [5]; 11.1 µM in data set [6]; 5.4 µM in data set [7].

Regarding `CNC(=O)[C@]12CCC(C)(C)C[C@H]1C1=CC[C@@H]3[C@@]4(C)CC[C@H](O[C@@H]5OC[C@H](O[C@@H]6O[C@H](CO)[C@@H](O)[C@H](O)[C@H]6O)[C@H](O)[C@H]5O[C@@H]5O[C@@H](C)[C@H](O)[C@@H](O)[C@H]5O)C(C)(C)[C@@H]4CC[C@@]3(C)[C@]1(C)CC2`, the IC50 is 46.7 µM in [1]; more than 100 µM in data set [3]; more than 100 µM in data set [4]; 55.8 µM in data set [5]; 41.9 µM in [6]; more than 100 µM in data set [7].

Turning to `CCCOC(=O)[C@]12CCC(C)(C)C[C@H]1C1=CC[C@@H]3[C@@]4(C)CC[C@H](O[C@@H]5OC[C@H](O[C@@H]6O[C@H](CO)[C@@H](O)[C@H](O)[C@H]6O)[C@H](O)[C@H]5O[C@@H]5O[C@@H](C)[C@H](O)[C@@H](O)[C@H]5O)C(C)(C)[C@@H]4CC[C@@]3(C)[C@]1(C)CC2`, the half-inhibitory concentration (IC50) in data set [1] was 1.8 µM; in [3] it was 8.3 µM; in data set [4] it was 4.7 µM; in data set [5], 11.9 µM; in data set [6] it was 9.7 µM; in [7] it was 12.3 µM.

For the compound `C[C@@H]1O[C@@H](O[C@H]2[C@H](O[C@H]3CC[C@]4(C)[C@H]5CC=C6[C@@H]7CC(C)(C)CC[C@]7(C(=O)OCCCC(=O)O)CC[C@@]6(C)[C@]5(C)CC[C@H]4C3(C)C)OC[C@H](O[C@@H]3O[C@H](CO)[C@@H](O)[C@H](O)[C@H]3O)[C@@H]2O)[C@H](O)[C@H](O)[C@H]1O`, the 50% inhibitory concentration (IC50) stood at 11.7 µM in data set [1]; 14.1 µM in data set [3]; 8.3 µM in data set [4]; 7.4 µM in [5]; 20.2 µM in data set [6]; 9.6 µM in [7].

Consider `COC(=O)[C@]12CCC(C)(C)C[C@H]1C1=CC[C@@H]3[C@@]4(C)CC[C@H](O[C@@H]5OC[C@H](O[C@@H]6O[C@H](CO)[C@@H](O)[C@H](O)[C@H]6O)[C@H](O)[C@H]5O[C@@H]5O[C@@H](C)[C@H](O)[C@@H](O)[C@H]5O)C(C)(C)[C@@H]4CC[C@@]3(C)[C@]1(C)CC2`, for which the Activity with Mus musculus [8] is reported as 39.74 g; in the data set on Mus musculus [9], 41.05 g; in the data set on Mus musculus [10], “Non-Toxic”; in the data set with Mus musculus [13], “Non-Toxic”. The IC50 in data set [1] was 1.1 µM; in data set [3], 1.3 µM; in [4], 3.5 µM; in data set [5] it was 1.7 µM; in data set [6], 4.6 µM; in data set [7], 3.1 µM. Besides, the Time with Mus musculus [2] is more than 7 days. Further, the inhibition in vivo at 10 mg/kg in data set [11] stood at 36.2%. In data set [12], the inhibition in vivo at 20 mg/kg was determined as 46.8%.

For `C[C@@H]1O[C@@H](O[C@H]2[C@H](O[C@H]3CC[C@]4(C)[C@H]5CC=C6[C@@H]7CC(C)(C)CC[C@]7(C(=O)O)CC[C@@]6(C)[C@]5(C)CC[C@H]4C3(C)C)OC[C@H](O[C@@H]3O[C@H](CO)[C@@H](O)[C@H](O)[C@H]3O)[C@@H]2O)[C@H](O)[C@H](O)[C@H]1O` [HEDERACOLCHISIDE A1], the IC50 in data set [1] was found to be 2.2 µM; in data set [14], 8.4 µM; in data set [16] it was 3.7 µM; in data set [3] it was 3.7 µM; in data set [17], 1300 nM; in data set [18], 2200 nM. In addition, the IC50 in data set [4] was 2.8 µM; in [21], 2800 nM; in [22] it was 1700 nM; in data set [5], 1.7 µM; in data set [6] it was 8.4 µM; in data set [7], 3.3 µM. For the same compound, the Time in the data set on Mus musculus [2] was less than 0.042 days. Further, in the data set on Mus musculus [15], the Activity stood at 41.76 g. Also, the inhibition in vivo at 6 mg/kg in [19] worked out at 47.5%. The MTD at 168 h in data set [20] was less than 8 mg/kg.

Usually IC50 stands for the concentration at which inhibition is half-maximal.
